In patent US20240391889A1, “ANTIMICROBIAL COMPOUNDS AND THE METHODS OF USE” (priority 2021, published 2024):
Values after ≈ are worked out from the molar mass of the structure shown. Like-named read-outs stand apart in the source and are kept apart here. Square brackets hold non-standard residues; d marks the D form. Peptide text beside a SMILES is read from it. NCyclohexylmethylGly = O=C(O)CNCC1CCCCC1; N(tridecyl)Gly = CCCCCCCCCCCCCNCC(=O)O; NFurfurylGly = O=C(O)CNCc1ccco1; Gly(N(CH2)3NH2) = NCCCNCC(=O)O; Nphe = O=C(O)CNCc1ccccc1; NPrGly = CCCNCC(=O)O; Nlys = NCCCCNCC(=O)O

Assays:
in vitro = assay type: cell-based; conditions: human, HepG2 hepatocellular carcinoma cells
Method: The mammalian cell lines that were tested (HepG2, 3T3, and HaCat) were incubated with RMG9-11 for 72 hours and cell viability was determined via mitochondrial activity using an MTT reduction assay where viable cells reduce MTT to formazan. Toxicity is reported as the concentration of the peptoid that results in a 50% reduction in viable cells, termed toxicity dose 50% or TD50. […] SR is defined as the TD50 divided by MIC and provides a measure of the therapeutic window for a compound. Typically for most lead compounds that would continue through development and optimization, a SR of 10 is preferred while an SR of 100 is more desirable for a compound moving into preclinical animal model evaluation.
Hepatocellular carcinoma (HepG2), mouse fibroblast (3T3), and human keratinocyte (HaCat) cells were cultured in Dulbeco modified eagle media (DMEM) containing 10% fetal bovine serum (FBS) and 1% penicillin, streptomycin, and glutamine (PSG) at 37° C. and 5% CO2. Cells were collected and adjusted to […] to 4×10^5 cells/mL in phenol-red free DMEM and plated (100 μL) 96 well plates. 2-fold serial dilutions of 10× peptoid (11.1 μL) were added to each well in triplicate. Water (vehicle) was used as a negative control. Plates were incubated at 37° C. in 5% CO2 for 72 hours. Thiazolyl blue tetrazolium bromide (MTT) was added to each well (5 mg/mL; 20 μL) and incubated for 3 hours. Media was removed, DMSO (100 μL) was added, and plates were incubated at 37° C. for 10 minutes. Plates were read on a SPECTRAMAX M5 plate reader (Abs. 570 nm). The concentration of compound resulting in a 50% reduction in growth compared to control (toxicity dose 50%; TD50) was determined using GRAFIT. This procedure was repeated three times on separate days.

C. albicans = assay type: cell-based, Candida albicans; conditions: 24 h
Source text: (§1) This screening led to the discovery of RMG9-11 (FIG. 2C). The minimum inhibitory concentration (MIC) of resynthesized RMG9-11 was initially determined against C. albicans, C. neoformans, and the ESKAPE bacteria via CSLI guidelines (CLSI. Methods for Dilution Antimicrobial Susceptibility Tests for Bacteria That Grow Aerobically, 11th Edition. Clinical and Laboratory Standards Institute (2018); CLSI. Reference method for broth dilution antifungal susceptibility testing of yeasts; approved standard-third edition; CLSI document M27-A3. Clinical and Laboratory Standards Institute (2008)). […] C. albicans clinical isolates include a reference strain (M1), fluconazole susceptible strains (M4 and M6), and fluconazole resistant strains (M2, M3, M5, and M7). ATCC 64124 is multidrug resistant C. albicans strain that is resistant to amphotericin B, fluconazole, caspofungin, and flucytosine. All MICs were performed under CSLI guidelines in triplicate on at least three different days.
(§2) The minimum inhibitory concentration (MIC) of peptoids against fungal pathogens C. albicans and C. neoformans was determined following CLSI guidelines (Reference method for broth dilution antifungal susceptibility testing of yeasts; approved standard-third edition; CLSI document M27-A3.” CLSI. 2008.). Colonies were transferred from a streaked YPD plate to 0.85% saline to reach an OD530 between 0.18 and 0.25. This inoculant was diluted 1:100 into RPMI-MOPS and then further diluted 1:20 into RPMI-MOPS. 198 μL of inoculant was seeded into each well of a 96 well black-walled plate. 2-fold serial dilutions of 100× peptoid solutions were prepared in water and 2 μL of peptoid were added to each well in triplicate. […] MIC was defined as the lowest concentration of compound preventing fungal growth. This assay was repeated 3 times on separate days with each compound.

C. neoformans = assay type: cell-based, Cryptococcus neoformans; conditions: 72 h
Source text: as §1, §2

[1] = Percent acetonitrile at time of elution from RP-HPLC (hydrophobicity); assay type: physicochemical
Method: Round 1 of the iterative SAR explored two miscellaneous derivatives along with derivatives that explored substitutions in position 3 (R^2; FIG. 6). Structures were confirmed by ESI-MS and hydrophobicity was determined by the percent acetonitrile at time of elution during RP-HPLC purification and using MarvinSketch to calculate the distribution coefficient at pH 7.4 (Table 5). Only one derivative of position 1 (group T of Formula 1) was explored, substituting a 14-carbon fatty acid (myristic acid) tail in place of the tridecyl tail (911-M1). This was tested because this fatty acid was previously shown to improve activity with C. albicans while reducing toxicity (Green R M, Bicker R. L. Evaluation of peptoid mimics of short, lipophilic peptide antimicrobials. Int J Antimicrob Agents. 2020; 56(2):106048. doi:10.1016/j.ijantimicag.2020.106048). The second miscellaneous derivative tested substituting the propyl group (Nnva) in position 2 (R^1) with a cationic group in an effort to reduce toxicity without effecting antifungal activity (911-M2). […]

CCCCCCCCCCCCCNCC(=O)N(CCC)CC(=O)N(CC(=O)N(CCCCN)CC(=O)N(CC(=O)N(CC(=O)N(CCCN)CC(N)=O)Cc1ccccc1)Cc1ccco1)CC1CCCCC1 [Compound 911-M10] (H-[N(tridecyl)Gly][NPrGly][NCyclohexylmethylGly][Nlys][NFurfurylGly][Nphe][Gly(N(CH2)3NH2)]-NH2; N-terminus assumed)
CC50 at 72 h (in vitro): 97.8 ± 18.3 µg/mL (≈ 94.5 µM) | MIC C. albicans (C. albicans): 6.25 µg/mL (≈ 6.04 µM) | MIC C. neoformans (C. neoformans): 0.78 to 1.56 µg/mL | MIC C. neoformans (C. neoformans; listed as 911-10): sub-one | % ACN [1]: 72.3%
